The data set can be described thus: Human HepG2 cell viability assay in 384 well format. Type of data set: toxicity, cell-based. Also noted: dose 125 nL, time 70.5 hour; concentration not given beside the values. To be noted: HepG2 cells, read-out: Inhibition.

For `Cc1nc(N(C)C)nc(NCCc2c[nH]cn2)c1C`, the cytotoxicity at 70.5 h is 23.7%. Consider `CN(C)C1CCN(c2cc(-c3ccccc3)nc3ccnn23)C1` (centres undefined), for which the cytotoxicity at 70.5 h was found to be 5.02%.

For `Cc1nc2c(c(=O)n1C)CN(C(=O)C1CCCN(CC(N)=O)C1)C2` (centres undefined), the cytotoxicity at 70.5 h was determined as 8.71%.

As for `CCc1ccc(CN2CCN(c3ccc(C#N)cc3)C(=O)C2)nc1`, the cytotoxicity at 70.5 h is -10.5%.

`Cc1nc(CN(C)C(=O)C2CC(=O)N(c3cccc(O)c3)C2)cs1` (centres undefined): the cytotoxicity at 70.5 h is -2.8%. Then `CC(C)[C@@H]1CN(Cc2c[nH]nc2-c2ccc(F)cc2)C[C@H]1NS(C)(=O)=O`, with -2.13%; and `COC(=O)CNC(=O)CC1COc2ccc(C(=O)N(C)C)cc2N1C` (centres undefined), with -2.55%; and `O=C(CN1CCCCCC1)NCCSc1cnn[nH]1`, with 0.00682%. Then `CC(C)(C)CCN1CCC(c2nnc(Cn3cccn3)n2C2CC2)CC1`, with -9.38%; and `Cc1c(C(=O)N[C@H]2CN(CCS(C)(=O)=O)C[C@@H]2C2CC2)cnn1C`, with -5.86%; and `O=C1NCC2(CCCN(C(=O)c3c[nH]nc3-c3cccs3)C2)O1` (centres undefined), with -8.3%.

As to `CCOCC(=O)N1CCC(Cc2nnc(SC)n2C)CC1`, the cytotoxicity at 70.5 h was -3.88%.

Turning to `CCc1nc(N2CCN(CCOC)CC2)c2cnn(C)c2n1`, the cytotoxicity at 70.5 h was -11.9%. Then `CCC1(CO)CCCN(Cc2nccn2Cc2ccccc2)C1` (centres undefined), with -4.15%; and `CCn1c(C2CCN(Cc3cc(C)n(NC(C)=O)c3C)CC2)n[nH]c1=O`, with -4.98%; and `O=C(NC1CC(=O)N(C2Cc3ccccc3C2)C1)c1csnn1` (centres undefined), with -1.65%. Then `COCCN(C)C[C@@H]1CN(C(=O)c2ccc(C)c(Cl)c2)C[C@@H]1CO`, with 1.13%; and `Cc1ccccc1C(=O)N1CC[C@@H](N2CCC(O)CC2)[C@H](O)C1`, with -1.6%. Then `CC(C)c1cc(N2CCCC3(CCN(C)C3)C2)ncn1` (centres undefined), with -5.86%; and `CCc1cn[nH]c1C1CCCN(C(=O)c2cc(C#N)c(=O)[nH]c2C)C1` (centres undefined), with -22.8%. `O=C(Nc1ccc(S(=O)(=O)Nc2c(F)cccc2F)cc1)N1CCCC1`: the cytotoxicity at 70.5 h was -6.84%. Take `Cc1cccc2cc(CO)c(N3Cc4cnc(C(C)(C)C)nc4C3)nc12`: the cytotoxicity at 70.5 h worked out at 7.83%. `C[C@@H]1CN(Cc2cc(C(F)(F)F)ccc2F)CC[C@@]1(O)C1CC1`: the cytotoxicity at 70.5 h was -2.04%. As for `CC(=O)N1CCC(N[C@@H]2CC[C@@H]2NS(=O)(=O)c2cccnc2)CC1`, the cytotoxicity at 70.5 h worked out at 2.57%. Then `CCn1cc(CN2CCCC3(CCC(=O)N(CCC(C)C)C3)C2)cn1` (centres undefined), with -1.61%. Then `CC(C)[C@H]1COC(=O)N1CC(=O)N1CCCN(C(=O)c2ccoc2)CC1`, with -8.34%; and `CC(C)Cc1cc(CNC(=O)C2CCCN(Cc3ccco3)C2)no1` (centres undefined), with -4.13%. Take `COc1ccccc1C1CCN(C(=O)CN2C(=O)OC(C)(C)C2=O)CC1`: the cytotoxicity at 70.5 h is -6.76%. Consider `Cc1cccc(-n2ncc3c2CCCC3NCC(C)(C)CO)c1C` (centres undefined), for which the cytotoxicity at 70.5 h is -10.7%. For the molecule `O=C(c1ccccc1-c1nc[nH]n1)N1CCOC(C(F)(F)F)C1` (centres undefined), the cytotoxicity at 70.5 h is -2.49%. Then `CN(C)c1nc2c(c(NCc3nnc4n3CCCCC4)n1)CCNC2`, with -6.97%. Turning to `CC(C)n1ccc(CN2CCN(c3cc(NC4CC4)nc(N)n3)CC2)c1`, the cytotoxicity at 70.5 h is -9%. Then `CCCc1cc(=O)[nH]c(-c2ccccc2CN(C)CCC(C)C)n1`, with 18.2%; and `CC(=O)Nc1ccc(C(=O)N(C)C(C)Cc2cc(C)ccn2)cn1` (centres undefined), with 1.81%. Take `CN1CC[C@H]2CN(C(=O)COCc3nc4cc(F)ccc4[nH]3)C[C@H]21`: the cytotoxicity at 70.5 h was 20.4%. As to `Cc1nc(O)cc(CCNC(=O)c2ccccc2N2CCCC2)n1`, the cytotoxicity at 70.5 h was determined as 27%. Then `CCc1cc(N[C@H]2CCC[C@H]2CO)n2nccc2n1`, with 6%; and `CCCn1cc(C(=O)NCCc2ccc3c(c2)OCO3)c(C)n1`, with -4.51%. Then `CCc1c(C)sc(NC(=O)CN2CCOCC2)c1C(=O)OC`, with -6.67%. Then `CSCc1ccc(N2CCC(C(O)Cc3ccccc3)CC2)nc1` (centres undefined), with 26.6%; and `COCCN(C)CCN1CC2(CCN(C3CCNCC3)CC2)OC1=O`, with -10.2%; and `CN(C(=O)c1cccc(NCc2cccs2)c1)C(C1CC1)C1CC1`, with -11.2%. For the molecule `CC(=O)N1C[C@H](NS(=O)(=O)c2cccc(Cl)c2)[C@@H](C(C)C)C1`, the cytotoxicity at 70.5 h was -9.51%. Then `CCC[C@H]1CN(c2nccc(OC)n2)C[C@@H]1NS(=O)(=O)N(C)C`, with 0.969%; and `Cc1[nH]nc(CCC(=O)N2CCc3ncnc(NCCO)c3CC2)c1C`, with -12.5%. In the case of `COc1coc(CN2CCCC(CCc3ccccc3F)C2)cc1=O` (centres undefined), the cytotoxicity at 70.5 h stood at 16.9%. Then `CCCNS(=O)(=O)c1ccc2[nH]c(=O)cc(C)c2c1`, with -12.9%. Then `Cc1cccnc1CC(C)NC1Cc2ccccc2C1` (centres undefined), with 5.92%; and `O=C(NC1CC1)c1nc(Cn2c(C(F)F)nc3ccccc32)no1`, with -7.88%; and `Cc1noc(C)c1CCNc1nccc(CCC(F)(F)F)n1`, with -8.75%. Take `CNCc1cn(C2CCN(C(=O)NCc3ccco3)CC2)nn1`: the cytotoxicity at 70.5 h is -8.5%.

Consider `CCc1nc2c(NCC3COc4cc(OC)ccc4C3)ncnc2o1` (centres undefined), for which the cytotoxicity at 70.5 h is -5.75%. Then `CC(C)NC(=O)c1nc(Cn2c(C(F)F)nc3ccccc32)no1`, with -15.2%.

`CN(C)S(=O)(=O)N1CC[C@]2(O)CCN(c3nccs3)C[C@@H]2C1`: the cytotoxicity at 70.5 h is 21.2%. As to `CCN1CCN(C(=O)COc2ccc(CN(C)S(C)(=O)=O)cc2)CC1`, the cytotoxicity at 70.5 h is -3.87%. Then `CCc1ccc(CNC(=O)CCc2nnc(-c3ccc(C)s3)o2)nc1`, with -3.31%.

Take `CCCN(Cc1cccc(OCCO)c1)Cc1ccccc1OC`: the cytotoxicity at 70.5 h came to 5.31%. As for `CN(C)CC(C)(C)Cn1cnc(-c2ccccc2)c1-c1ccncc1`, the cytotoxicity at 70.5 h was -9.09%. Then `CCCN1CCC(NC(=O)c2csc(C)c2C)CC1`, with -7.88%; and `CC(C1CCN(Cc2cnn(C)c2C2CC2)CC1)N1CCCC1` (centres undefined), with -7.31%. Then `Cc1ccccc1N1CCN(C(=O)CC(C)C)CC1`, with 0.0324%. Then `CCCN1CCC(NC(=O)c2csc(C)c2-c2ccccc2)CC1`, with -9.07%; and `Cc1ccc2c(c1)c(CNC(=O)C1CC(=O)N(CCN(C)C)C1)nn2C` (centres undefined), with -0.487%. Take `N#CC1CCCN(c2ncnc3c2CCN(Cc2ccccc2)CC3)C1` (centres undefined): the cytotoxicity at 70.5 h is 2.53%. Take `CCN(CCO)C[C@@H]1CN(c2nc(C)cc(C)n2)C[C@@H]1CO`: the cytotoxicity at 70.5 h is -2.32%. Then `Cc1cc(=O)[nH]c(=O)n1-c1cccc(Cl)c1Cl`, with -12.3%; and `O=C(CC(F)(F)F)N1CCc2[nH]nc(-c3ccc4c(c3)OCO4)c2C1`, with 7.4%; and `CN1CCC(Oc2ccc(-n3ccnc3-c3ccncc3)cc2)CC1`, with -13.2%. Then `O=S(=O)(c1c(N2CCCCC2)ccc2nonc12)N1CCCCC1`, with -8.4%; and `Cc1ccc(C(=O)NCCC(C)C)cc1NS(C)(=O)=O`, with -10%. Then `CN(C)Cc1nnc(C2CCCN(c3ncccc3F)C2)n1C` (centres undefined), with 24.4%; and `Cc1cc(C)c2nc(CN[C@H]3CCCNC3)cc(O)c2c1`, with -2.89%; and `CC(=O)Nc1ncc(S(=O)(=O)N2CCC(C)CC2)s1`, with -8.58%. For `COc1cc(-c2cnnc(NCCCOC(C)C)n2)cc(OC)c1OC`, the cytotoxicity at 70.5 h worked out at 6.95%. Then `Cc1ccnc(NC(=O)C(C)Cn2cncn2)c1` (centres undefined), with 13.8%. Then `COCCNc1nc2c(c(NCC3CCOC3)n1)CCNCC2` (centres undefined), with -0.779%. As to `CCC[C@H]1CN(Cc2cc(C#N)n(C)c2C)C[C@@H]1NS(=O)(=O)CC`, the cytotoxicity at 70.5 h was -6.14%. Then `CCc1cc(C(=O)N2CC[C@@H](c3ccc4c(c3)OCO4)[C@H](O)C2)ccn1`, with 16.7%; and `COc1ccc(C(=O)n2nc(C)c(C)c2C)cc1`, with -2.07%; and `Cc1cccc2c1nc(COCC(=O)O)n2-c1ccsc1`, with -4.32%. Then `O=C(C1CCOC1)N1CCN(Cc2ccc3c(c2)CCO3)CC1` (centres undefined), with -9.08%; and `Cc1nn(C)c(Cl)c1C1CCCN1Cc1nnc(C2CC2)o1` (centres undefined), with -5.62%. Then `COCCc1noc(CN2CCCC2c2c(C)nn(C)c2Cl)n1` (centres undefined), with -0.0583%.

Turning to `Cc1ccc(CN(C)C(=O)c2ccc(NC3CC3)nc2)o1`, the cytotoxicity at 70.5 h was -13.2%. Then `N#Cc1cccc(C(=O)N2CCN(c3ncccn3)CC2)c1`, with 14.3%; and `Cc1nccc(-c2cccc(NCC(=O)N3CCOCC3)c2)n1`, with -4.16%; and `Cc1nc(C(C)C)sc1C(=O)NCCNc1ncccn1`, with -10.9%. Then `Cc1noc(NC(=O)c2cccc(Br)c2)n1`, with -0.644%. Then `Cc1noc(NC(=O)CCNC(=O)c2ccc(Br)cc2)n1`, with 14.6%. On to `Cc1ccc(C(=O)Nc2nc(C)no2)cc1`, for which the cytotoxicity at 70.5 h is -4.79%.

Regarding `Cc1noc(NC(=O)c2ccc(F)cc2)n1`, the cytotoxicity at 70.5 h was -3.99%. Then `CCCc1nc(C)c(C(=O)NCCNc2ncccn2)s1`, with -6.59%; and `O=C(NCCn1cccn1)c1ccn(-c2cccc(F)c2)n1`, with -11.4%.

Take `COc1ccc(-n2ccc(C(=O)NCCn3ccnc3)n2)cc1`: the cytotoxicity at 70.5 h was -8.04%.

As to `COc1ccc(C(=O)N(C)Cc2c(C)noc2C)cn1`, the cytotoxicity at 70.5 h is -4.2%. Then `Cc1nc(C)c(C(=O)NCCNc2ncccn2)s1`, with -5.75%; and `Cc1cc(C)c(CNC(=O)NCC(O)c2ccccc2F)c(=O)[nH]1` (centres undefined), with -2.12%; and `Cc1cc(C)c(CNC(=O)N(C)Cc2cccc(F)c2)c(=O)[nH]1`, with 0.933%. With `Cc1ccc(OCCSC2=NCCN2)cc1`, the cytotoxicity at 70.5 h was -4.93%.

For the origin of these results see ChEMBL document CHEMBL3507680, “University of Dundee, Gates Library screen for HepG2 cell viability”.
